The assay deals with human PAD4 (hPAD4) (Homo sapiens, UniProt Q9UM07). The assay can be described thus: RFMS human PAD4 functional assay (rapid-fire mass spectrum). The format is biochemical. The note with it: 5 nM hPAD4 enzyme, 250 μM BAEE, 50 μM Calcium; 30 min preincubation, 90 min reaction at 37° C. The gist of the method:
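PAD4 (10 nM) preincubated 30 min with compound (top final 50 μM), then BAEE substrate added in pH 7.5 HEPES buffer with DTT, 50 μM calcium, TPEN; 90 min at 37° C. After TCA quench, citrulline derivatized with phenyl glyoxal (4 mM final, 30 min, 37° C) and quantified by RapidFire MS against internal standard.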

human PAD4 (hPAD4), sequence (Q9UM07 whole entry): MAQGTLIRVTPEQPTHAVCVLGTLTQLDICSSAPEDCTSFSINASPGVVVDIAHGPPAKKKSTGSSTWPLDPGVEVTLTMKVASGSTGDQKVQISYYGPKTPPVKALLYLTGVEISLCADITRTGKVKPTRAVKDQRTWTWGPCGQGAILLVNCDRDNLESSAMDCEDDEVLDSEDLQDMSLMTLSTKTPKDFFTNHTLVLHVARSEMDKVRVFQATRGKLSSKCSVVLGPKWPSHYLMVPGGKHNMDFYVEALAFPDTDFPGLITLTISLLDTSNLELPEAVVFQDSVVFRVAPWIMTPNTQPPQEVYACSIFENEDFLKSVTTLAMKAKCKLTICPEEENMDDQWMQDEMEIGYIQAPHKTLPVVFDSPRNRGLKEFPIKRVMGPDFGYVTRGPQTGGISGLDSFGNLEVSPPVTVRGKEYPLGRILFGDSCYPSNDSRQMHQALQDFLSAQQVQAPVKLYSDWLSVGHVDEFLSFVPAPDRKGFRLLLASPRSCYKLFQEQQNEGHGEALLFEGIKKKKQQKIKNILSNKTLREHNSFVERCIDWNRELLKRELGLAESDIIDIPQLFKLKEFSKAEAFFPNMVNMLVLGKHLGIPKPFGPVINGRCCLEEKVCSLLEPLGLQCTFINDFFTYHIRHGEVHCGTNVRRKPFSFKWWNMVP

For `CCC(=O)N1CC(Cn2c(-c3cc4cccnc4n3CC3CC3)nc3cc(C(=O)N4C[C@H]5CC[C@@H]4[C@@H]5N)cc(OC)c32)C1` [Example 134, 1-[3-({5-[(1R,4R,7R)-7-amino-2-azabicyclo[2.2.1]heptane-2-carbonyl]-2-[1-(cyclopropylmethyl)-1H-pyrrolo[2,3-b]pyridin-2-yl]-7-methoxy-1H-1,3-benzodiazol-1-yl}methyl)azetidin-1-yl]propan-1-one], the IC50 (in general, the concentration at which inhibition is half-maximal) is 193 nM.

For `COc1cc(C(=O)N2CC3CCC2[C@@H]3N)cc2nc(-c3cc4ccccc4n3CC3CC3)n(CC3CN(C(=O)c4ccc(C(F)(F)F)cc4)C3)c12` (stereo partly drawn) [Example 420, (7R)-2-{2-[1-(cyclopropylmethyl)-1H-indol-2-yl]-7-methoxy-1-({1-[4-(trifluoromethyl)benzoyl]aze-tidin-3-yl}methyl)-1H-1,3-benzodiazole-5-carbonyl}-2-azabicyclo[2.2.1]heptan-7-amine], the IC50 came to 20 nM. For the compound `COc1cc(C(=O)N2CCC[C@@H](N)C2)cc2nc(-c3cc4cccnc4n3CC3CC3)n([C@H]3C[C@H](N)C3)c12` [Example 300, (3R)-1-{2-[1-(cyclopropylmethyl)-1H-pyrrolo[2,3-b]pyridin-2-yl]-7-methoxy-1-[(1r,3r)-3-aminocyclobutyl]-1H-1,3-benzodiazole-5-carbonyl}piperidin-3-amine], the IC50 was found to be 912 nM. The figure for `COc1cc(C(=O)N2C[C@H]3CC[C@@H]2[C@@H]3N)cc2nc(-c3cc4cc(Cl)ccc4n3C)n(CC3CN(c4ccnc(C)n4)C3)c12` [Example 61, (1R,4R,7R)-2-[2-(5-chloro-1-methyl-1H-indol-2-yl)-7-methoxy-1-{[1-(2-methylpyrimidin-4-yl)azetidin-3-yl]methyl}-1H-1,3-benzodiazole-5-carbonyl]-2-azabicyclo[2.2.1]heptan-7-amine] is 187 nM. In the case of `COc1cc(C(=O)N2CC3CCC2[C@@H]3N)cc2nc(-c3cc4cccnc4n3CC3CC3)n(CC3CN(C(=O)[C@@H]4C[C@H]4C)C3)c12` (stereo partly drawn) [Example 128, (1R,4R,7R)-2-{2-[1-(cyclopropylmethyl)-1H-pyrrolo[2,3-b]pyridin-2-yl]-7-methoxy-1-({1-[(1R,2R)-2-methylcyclopropanecarbonyl]aze-tidin-3-yl}methyl)-1H-1,3-benzodiazole-5-carbonyl}-2-azabicyclo[2.2.1]heptan-7-amine] it was 109 nM; in that of `COc1cc(C(=O)N2CC3CCC2[C@@H]3N)cc2nc(-c3cc4ccccc4n3CC3CC3)n(C[C@H]3CCN(c4ccnc(C)n4)C3)c12` (stereo partly drawn) [Example 224, (1R.,4R,7R)-2-{2-[1-(cyclopropylmethyl)-1H-indol-2-yl]-7-methoxy-1-{[(3S)-1-(2-methylpyrimidin-4-yl)pyrrolidin-3-yl]methyl}-1H-1,3-benzodiazole-5-carbonyl}-2-azabicyclo[2.2.1]heptan-7-amine], 19 nM. The figure for `COc1cc(C(=O)N2C[C@H]3CC[C@@H]2[C@@H]3N)cc2nc(-c3cc4cccnc4n3CC3CC3)n(CC3CCNCC3)c12` [Example 305, (1R,4R,7R)-2-{2-[1-(cyclopropylmethyl)-1H-pyrrolo[2,3-b]pyridin-2-yl]-7-methoxy-1-[(piperidin-4-yl)methyl]-1H-1,3-benzodiazole-5-carbonyl)-2-azabicyclo[2.2.1]heptan-7-amine] is 303 nM. Turning to `COc1cc(C(=O)N2CC3CCC2[C@@H]3N)cc2nc(-c3cc4ccccc4n3CC3CC3)n(CC3CN(C(=O)c4ccc(C#N)cn4)C3)c12` (stereo partly drawn) [Example 435, 6-[3-({5-[(7R)-7-amino-2-azabicyclo[2.2.1]heptane-2-carobnyl]-2-[1-(cyclopropylmethyl)-1H-indol-2-yl]-7-methoxy-1H-1,3-benzodiazol-1-yl}methyl)azetidine-1-carobnyl]pyridine-3-carbonitrile], the IC50 was 34 nM. The figure for `COc1cc(C(=O)N2CC3CCC2[C@@H]3N)cc2nc(-c3cc4cccnc4n3CC3CC3)n(CC3CN(C(=O)c4cc(F)ccc4F)C3)c12` (stereo partly drawn) [Example 422, (7R)-2-{2-[1-(cyclopropylmethyl)-1H-pyrrolo[2,3-b]pyridin-2-yl]-1-{[1-(2,5-difluorobenzoyl)azetidin-3-yl]methyl}-7-methoxy-1H-1,3-benzodiazole-5-carbonyl}-2-azabicyclo[2.2.1]heptan-7-amine] is 22 nM; for `COc1cc(C(=O)N2C[C@H]3CC[C@@H]2[C@@H]3N)cc2nc(-c3cc4cccnc4n3CC3CC3)n(CC3CN(C(=O)c4ccnc(Cl)n4)C3)c12` [Example 126, (1R,4R,7R)-2-(1-{[1-(2-chloropyrimidine-4-carbonyl)azetidin-3-yl]methyl}-2-[1-(cyclopropylmethyl)-1H-pyrrolo[2,3-b]pyridin-2-yl]-7-methoxy-1H-1,3-benzodiazole-5-carbonyl)-2-azabicyclo[2.2.1]heptan-7-amine] it is 108 nM; for `N[C@@H]1[C@@H]2CC[C@H]1N(C(=O)c1cc(Cl)c3c(c1)nc(-c1cc4cccnc4n1CC1CC1)n3CC1CN(C(=O)c3ccncc3)C1)C2` [Example 131, (1R,4R,7R)-2-{7-chloro-2-[1-(cyclopropylmethyl)-1H-pyrrolo[2,3-b]pyridin-2-yl]-1-{[1-(pyridine-4-carbonyl)azetidin-3-yl]methyl}-1H-1,3-benzodiazole-5-carbonyl}-2-azabicyclo[2.2.1]heptan-7-amine] it is 138 nM. In the case of `COc1cc(C(=O)N2C[C@H]3CC[C@@H]2[C@@H]3N)cc2nc(-c3cc4ccc(Cl)cc4n3CC3CC3)n(CC3CN(c4cncc(C#N)c4)C3)c12` [Example 87, 5-[3-({5-[(1R,4R,7R)-7-amino-2-azabicyclo[2.2.1]heptane-2-carbonyl]-2-[6-chloro-1-(cyclopropylmethyl)-1H-indol-2-yl]-7-methoxy-1H-1,3-benzodiazol-1-yl}methyl)azetidin-1-yl]pyridine-3-carbonitrile] it was 2280 nM; in that of `COc1cc(C(=O)N2C[C@H]3CC[C@@H]2[C@@H]3N)cc2nc(-c3cc4cccnc4n3CC3CC3)n(C3CN(S(C)(=O)=O)C3)c12` [Example 330, (1R,4R,7R)-2-{2-[1-(cyclopropylmethyl)-1H-pyrrolo[2,3-b]pyridin-2-yl]-1-(1-methanesulfonylazetidin-3-yl)-7-methoxy-1H-1,3-benzodiazole-5-carbonyl}-2-azabicyclo[2.2.1]heptan-7-amine], 184 nM; in that of `COc1cc(C(=O)N2CC3CCC2[C@@H]3N)cc2nc(-c3cc4cccnc4n3CC3CC3)n(Cc3cnn(-c4cncc(Cl)c4)c3)c12` (stereo partly drawn) [Example 383, (7R)-2-(1-{[1-(5-chloropyridin-3-yl)-1H-pyrazol-4-yl]methyl}-2-[1-(cyclopropylmethyl)-1H-pyrrolo[2,3-b]pyridin-2-yl]-7-methoxy-1H-1,3-benzodiazole-5-carbonyl)-2-azabicyclo[2.2.1]heptan-7-amine], 41 nM. The figure for `COc1cc(N2CC(Cn3c(-c4cc5cccnc5n4CC4CC4)nc4cc(C(=O)N5C[C@H]6CC[C@@H]5[C@@H]6N)cc(OC)c43)C2)ccn1` [Example 49, (1R,4R,7R)-2-{2-[1-(cyclopropylmethyl)-1H-pyrrolo[2,3-b]pyridin-2-yl]-7-methoxy-1-{[1-(2-methoxypyridin-4-yl)azetidin-3-yl]methyl}-1H-1,3-benzodiazole-5-carbonyl}-2-azabicyclo[2.2.1]heptan-7-amine] is 126 nM.

(Values after US12692254B2, “Benzimidazole inhibitors of PAD enzymes” (BRISTOL-MYERS SQUIBB COMPANY, priority 2018, dated 2026).)
